Results taken from patent US20060069036A1, “Methods of treatment of inflammation using glutathiones” (priority 2004, published 2006).

Assays:
psoriasis lesions = test system: psoriasis lesions
Source text: As of the filing of this application, a preliminary program of clinical testing has been conducted. […] Patients instructed to apply the product twice daily to the affected areas.

GSH levels = conditions: oral administration, cited from earlier work
[1] = patients with psoriasis symptoms, topical cream 45 mg/ml GSH in phospholipid carrier, twice daily

SMILES: N[C@@H](CCC(=O)N[C@@H](CS)C(=O)NCC(=O)O)C(=O)O [reduced glutathione (GSH), N-L-gamma-glutamyl-cysteinyl glycine]
- adverse side effects (psoriasis lesions; clinical studies to date, topical application): no adverse side effects
- response of patient lesions to treatment (psoriasis lesions; patients with psoriasis symptoms, topical cream 45 mg/ml GSH in phospholipid carrier, applied twice daily to affected areas): significantly improved
- elasticity and supple feeling of the skin (psoriasis lesions; [1]): returned
- inflammation, irritation, and erythema of the skin (psoriasis lesions; [1]): decreased
- time after first application to significant improvement (in some cases clearing) of lesions (psoriasis lesions; [1]): ≤ 24 h

SMILES: O=C(O)CCCCC1CCSS1 (stereo not drawn) [alpha-lipoic acid, Alpha-lipoic acid]
- effect on GSH levels (GSH levels; HIV patients): raises GSH levels
- safety and tolerability (GSH levels): extremely safe and well tolerated
